Measured values: ChEMBL document CHEMBL3045111, “Synthesis and herbicidal activities of novel 3-(substituted benzyloxy or phenoxy)-6-methyl-4-(3-trifluoromethylphenyl)pyridazine derivatives” (2012)
Calls of active or inactive are those of the source. The rule behind the calls is not given here.

Experiments:
[1] = system: Amaranthus retroflexus; assay: Post-emergence herbicidal activity against one-leaf stage Amaranthus retroflexus under greenhouse condition at 300 g /ha measured after 24 days by spray method; format: functional; conditions: 576 h, read-out: GI
[2] = system: Amaranthus retroflexus; assay: Post-emergence herbicidal activity against one-leaf stage Amaranthus retroflexus under greenhouse condition assessed as complete bleaching of leaves at 150 g /ha measured after 24 days by spray method; format: functional, organism-based
[3] = system: Amaranthus retroflexus; assay: Post-emergence herbicidal activity against one-leaf stage Amaranthus retroflexus under greenhouse condition assessed as complete bleaching of leaves at 75 g /ha measured after 24 days by spray method; format: functional, organism-based
[4] = system: Amaranthus retroflexus; assay: Post-emergence herbicidal activity against one-leaf stage Amaranthus retroflexus under greenhouse condition assessed as complete bleaching of leaves at 7.5 g /ha measured after 24 days by spray method; format: functional, organism-based
[5] = system: Brassica rapa subsp. oleifera; assay: Post-emergence herbicidal activity against one-leaf stage Brassica rapa subsp. oleifera under greenhouse condition assessed as complete bleaching of leaves at 150 g /ha measured after 24 days by spray method; format: functional, organism-based
[6] = system: Digitaria; assay: Post-emergence herbicidal activity against one-leaf stage of Digitaria adscendens under greenhouse condition at 750 g /ha measured after 24 days by spray method; format: functional; conditions: in Digitaria adscendens, 576 h, read-out: GI
[7] = system: Brassica rapa subsp. oleifera; assay: Post-emergence herbicidal activity against one-leaf stage Brassica rapa subsp. oleifera under greenhouse condition assessed as complete bleaching of leaves at 15 g /ha measured after 24 days by spray method; format: functional, organism-based
[8] = system: Amaranthus retroflexus; assay: Post-emergence herbicidal activity against one-leaf stage Amaranthus retroflexus under greenhouse condition at 7.5 g /ha measured after 24 days by spray method; format: functional; conditions: 576 h, read-out: GI
[9] = system: Brassica rapa subsp. oleifera; assay: Post-emergence herbicidal activity against one-leaf stage Brassica rapa subsp. oleifera under greenhouse condition at 15 g /ha measured after 24 days by spray method; format: functional; conditions: 576 h, read-out: GI
[10] = system: Brassica rapa subsp. oleifera; assay: Post-emergence herbicidal activity against one-leaf stage Brassica rapa subsp. oleifera under greenhouse condition at 600 g /ha measured after 24 days by spray method; format: functional; conditions: 576 h, read-out: GI
[11] = system: Amaranthus retroflexus; assay: Post-emergence herbicidal activity against one-leaf stage Amaranthus retroflexus under greenhouse condition assessed as complete bleaching of leaves at 300 g /ha measured after 24 days by spray method; format: functional, organism-based
[12] = system: Amaranthus retroflexus; assay: Post-emergence herbicidal activity against one-leaf stage Amaranthus retroflexus under greenhouse condition at 600 g /ha measured after 24 days by spray method; format: functional; conditions: 576 h, read-out: GI
[13] = system: Amaranthus retroflexus; assay: Post-emergence herbicidal activity against one-leaf stage Amaranthus retroflexus under greenhouse condition at 15 g /ha measured after 24 days by spray method; format: functional; conditions: 576 h, read-out: GI
[14] = system: Spirodela polyrhiza; assay: Bleaching herbicidal activity in Spirodela polyrhiza fronds cultured in compound-containing in medium assessed as chlorophyll inhibition at 1 ug/ml after 7 days; format: functional; conditions: 168 h
[15] = system: Amaranthus retroflexus; assay: Post-emergence herbicidal activity against one-leaf stage Amaranthus retroflexus under greenhouse condition assessed as complete bleaching of leaves at 30 g /ha measured after 24 days by spray method; format: functional, organism-based
[16] = system: Brassica rapa subsp. oleifera; assay: Post-emergence herbicidal activity against one-leaf stage Brassica rapa subsp. oleifera under greenhouse condition at 30 g /ha measured after 24 days by spray method; format: functional; conditions: 576 h, read-out: GI
[17] = system: Amaranthus retroflexus; assay: Post-emergence herbicidal activity against one-leaf stage Amaranthus retroflexus under greenhouse condition at 30 g /ha measured after 24 days by spray method; format: functional; conditions: 576 h, read-out: GI
[18] = system: Brassica rapa subsp. oleifera; assay: Post-emergence herbicidal activity against one-leaf stage Brassica rapa subsp. oleifera under greenhouse condition at 750 g /ha measured after 24 days by spray method; format: functional; conditions: 576 h, read-out: GI
[19] = system: Brassica rapa subsp. oleifera; assay: Post-emergence herbicidal activity against one-leaf stage Brassica rapa subsp. oleifera under greenhouse condition assessed as complete bleaching of leaves at 300 g /ha measured after 24 days by spray method; format: functional, organism-based
[20] = system: Echinochloa crus-galli; assay: Pre-emergence herbicidal activity against Echinochloa crus-galli (barnyard grass) under greenhouse condition at 750 g /ha measured after 24 days by spray method; format: functional; conditions: 576 h, read-out: GI
[21] = system: Brassica rapa subsp. oleifera; assay: Post-emergence herbicidal activity against one-leaf stage Brassica rapa subsp. oleifera under greenhouse condition assessed as complete bleaching of leaves at 30 g /ha measured after 24 days by spray method; format: functional, organism-based
[22] = system: Amaranthus retroflexus; assay: Post-emergence herbicidal activity against one-leaf stage Amaranthus retroflexus under greenhouse condition at 75 g /ha measured after 24 days by spray method; format: functional; conditions: 576 h, read-out: GI
[23] = system: Brassica rapa subsp. oleifera; assay: Post-emergence herbicidal activity against one-leaf stage Brassica rapa subsp. oleifera under greenhouse condition at 300 g /ha measured after 24 days by spray method; format: functional; conditions: 576 h, read-out: GI
[24] = system: Brassica rapa subsp. oleifera; assay: Post-emergence herbicidal activity against one-leaf stage Brassica rapa subsp. oleifera under greenhouse condition assessed as complete bleaching of leaves at 7.5 g /ha measured after 24 days by spray method; format: functional, organism-based
[25] = system: Brassica rapa subsp. oleifera; assay: Post-emergence herbicidal activity against one-leaf stage Brassica rapa subsp. oleifera under greenhouse condition at 60 g /ha measured after 24 days by spray method; format: functional; conditions: 576 h, read-out: GI
[26] = system: Amaranthus retroflexus; assay: Post-emergence herbicidal activity against one-leaf stage Amaranthus retroflexus under greenhouse condition assessed as complete bleaching of leaves at 60 g /ha measured after 24 days by spray method; format: functional, organism-based
[27] = system: Amaranthus retroflexus; assay: Post-emergence herbicidal activity against one-leaf stage Amaranthus retroflexus under greenhouse condition at 150 g /ha measured after 24 days by spray method; format: functional; conditions: 576 h, read-out: GI
[28] = system: Brassica rapa subsp. oleifera; assay: Post-emergence herbicidal activity against one-leaf stage Brassica rapa subsp. oleifera under greenhouse condition at 75 g /ha measured after 24 days by spray method; format: functional; conditions: 576 h, read-out: GI
[29] = system: Brassica rapa subsp. oleifera; assay: Post-emergence herbicidal activity against one-leaf stage Brassica rapa subsp. oleifera under greenhouse condition at 150 g /ha measured after 24 days by spray method; format: functional; conditions: 576 h, read-out: GI
[30] = system: Amaranthus retroflexus; assay: Post-emergence herbicidal activity against one-leaf stage of Amaranthus retroflexus under greenhouse condition at 750 g /ha measured after 24 days by spray method; format: functional; conditions: 576 h, read-out: GI
[31] = system: Digitaria; assay: Pre-emergence herbicidal activity against Digitaria adscendens under greenhouse condition at 750 g /ha measured after 24 days by spray method; format: functional; conditions: in Digitaria adscendens, 576 h, read-out: GI
[32] = system: Echinochloa crus-galli; assay: Post-emergence herbicidal activity against one-leaf stage of Echinochloa crus-galli (barnyard grass) under greenhouse condition at 750 g /ha measured after 24 days by spray method; format: functional; conditions: 576 h, read-out: GI
[33] = system: Amaranthus retroflexus; assay: Pre-emergence herbicidal activity against Amaranthus retroflexus under greenhouse condition at 750 g /ha measured after 24 days by spray method; format: functional; conditions: 576 h, read-out: GI
[34] = system: Brassica rapa subsp. oleifera; assay: Post-emergence herbicidal activity against one-leaf stage Brassica rapa subsp. oleifera under greenhouse condition at 7.5 g /ha measured after 24 days by spray method; format: functional; conditions: 576 h, read-out: GI
[35] = system: Amaranthus retroflexus; assay: Post-emergence herbicidal activity against one-leaf stage Amaranthus retroflexus under greenhouse condition assessed as complete bleaching of leaves at 15 g /ha measured after 24 days by spray method; format: functional, organism-based
[36] = system: Brassica rapa subsp. oleifera; assay: Post-emergence herbicidal activity against one-leaf stage Brassica rapa subsp. oleifera under greenhouse condition assessed as complete bleaching of leaves at 600 g /ha measured after 24 days by spray method; format: functional, organism-based
[37] = system: Brassica rapa subsp. oleifera; assay: Post-emergence herbicidal activity against one-leaf stage Brassica rapa subsp. oleifera under greenhouse condition assessed as complete bleaching of leaves at 75 g /ha measured after 24 days by spray method; format: functional, organism-based
[38] = system: Brassica rapa subsp. oleifera; assay: Pre-emergence herbicidal activity against Brassica rapa subsp. oleifera under greenhouse condition at 750 g /ha measured after 24 days by spray method; format: functional; conditions: 576 h, read-out: GI
[39] = system: Spirodela polyrhiza; assay: Bleaching herbicidal activity in Spirodela polyrhiza fronds cultured in compound-containing in medium assessed as chlorophyll inhibition at 10 ug/ml after 7 days; format: functional; conditions: 168 h
[40] = system: Amaranthus retroflexus; assay: Post-emergence herbicidal activity against one-leaf stage Amaranthus retroflexus under greenhouse condition at 60 g /ha measured after 24 days by spray method; format: functional; conditions: 576 h, read-out: GI
[41] = system: Brassica rapa subsp. oleifera; assay: Post-emergence herbicidal activity against one-leaf stage Brassica rapa subsp. oleifera under greenhouse condition assessed as complete bleaching of leaves at 60 g /ha measured after 24 days by spray method; format: functional, organism-based
[42] = system: Amaranthus retroflexus; assay: Post-emergence herbicidal activity against one-leaf stage Amaranthus retroflexus under greenhouse condition assessed as complete bleaching of leaves at 600 g /ha measured after 24 days by spray method; format: functional, organism-based

## Cc1cc(-c2cccc(C(F)(F)F)c2)c(Oc2ccc(Br)cc2)nn1
[1]
  inhibition of growth at 300 g/ha: 100%
[2]
  Activity: Active
[3]
  Activity: Active
[4]
  Activity: Active
[5]
  Activity: Active
[6]
  inhibition of growth at 750 g/ha: 93%
[7]
  Activity: Active
[8]
  inhibition of growth at 7.5 g/ha: 25%
[9]
  inhibition of growth at 15 g/ha: 94%
[10]
  inhibition of growth at 600 g/ha: 100%
[11]
  Activity: Active
[12]
  inhibition of growth at 600 g/ha: 100%
[13]
  inhibition of growth at 15 g/ha: 28%
[14]
  inhibition at 1 µg/mL: 80%
[15]
  Activity: Active
[16]
  inhibition of growth at 30 g/ha: 100%
[17]
  inhibition of growth at 30 g/ha: 35%
[18]
  inhibition of growth at 750 g/ha: 94%
[19]
  Activity: Active
[20]
  inhibition of growth at 750 g/ha: 60%
[21]
  Activity: Active
[22]
  inhibition of growth at 75 g/ha: 88%
[23]
  inhibition of growth at 300 g/ha: 100%
[24]
  Activity: Active
[25]
  inhibition of growth at 60 g/ha: 100%
[26]
  Activity: Active
[27]
  inhibition of growth at 150 g/ha: 100%
[28]
  inhibition of growth at 75 g/ha: 100%
[29]
  inhibition of growth at 150 g/ha: 100%
[30]
  inhibition of growth at 750 g/ha: 100%
[31]
  inhibition of growth at 750 g/ha: 64%
[32]
  inhibition of growth at 750 g/ha: 60%
[33]
  inhibition of growth at 750 g/ha: 94%
[34]
  inhibition of growth at 7.5 g/ha: 68%
[35]
  Activity: Active
[36]
  Activity: Active
[37]
  Activity: Active
[38]
  inhibition of growth at 750 g/ha: 61%
[39]
  inhibition at 10 µg/mL: 90%
[40]
  inhibition of growth at 60 g/ha: 51%
[41]
  Activity: Active
[42]
  Activity: Active
